Assay results as given in paper PMC4077706, “Lifting the Mask: Identification of New Small Molecule Inhibitors of Uropathogenic Escherichia coli Group 2 Capsule Biogenesis” (PLoS ONE, 2014).
Like-named read-outs stand apart in the source and are kept apart here.

What was measured:
Opiate δ1 (OP1, DOP) = Opiate δ1 (OP1, DOP) (Homo sapiens, UniProt P41143); settings: cited from earlier work
[1] = assay standard, general statement; cited from earlier work
Muscarinic M1 [2] = biological target: T1, Muscarinic M1 (Homo sapiens, UniProt P11229); experiment: Radioligand binding 252610; settings: read-out: IC50 Concurrent
T1 construct: host or cells: CHO-K1 cells
T1 sequence (P11229 whole entry): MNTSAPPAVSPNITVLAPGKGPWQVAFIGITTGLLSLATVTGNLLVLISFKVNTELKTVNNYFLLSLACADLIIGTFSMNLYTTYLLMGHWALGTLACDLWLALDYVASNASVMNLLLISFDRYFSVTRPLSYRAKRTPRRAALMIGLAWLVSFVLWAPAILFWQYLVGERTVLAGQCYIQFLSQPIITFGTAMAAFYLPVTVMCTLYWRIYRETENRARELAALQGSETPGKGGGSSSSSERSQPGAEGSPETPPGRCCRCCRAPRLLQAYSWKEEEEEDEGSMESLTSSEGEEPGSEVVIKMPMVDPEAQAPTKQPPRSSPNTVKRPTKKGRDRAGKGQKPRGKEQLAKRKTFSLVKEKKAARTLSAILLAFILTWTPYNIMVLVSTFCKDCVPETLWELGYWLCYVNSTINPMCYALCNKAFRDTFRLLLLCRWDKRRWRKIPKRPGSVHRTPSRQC

Muscarinic M1 [3] = biological target: T1, Muscarinic M1; settings: cited from earlier work
Muscarinic M2 = biological target: T2, Muscarinic M2 (Homo sapiens, UniProt P08172); settings: cited from earlier work
T2 construct: host or cells: CHO-K1 cells
T2 sequence (P08172 whole entry): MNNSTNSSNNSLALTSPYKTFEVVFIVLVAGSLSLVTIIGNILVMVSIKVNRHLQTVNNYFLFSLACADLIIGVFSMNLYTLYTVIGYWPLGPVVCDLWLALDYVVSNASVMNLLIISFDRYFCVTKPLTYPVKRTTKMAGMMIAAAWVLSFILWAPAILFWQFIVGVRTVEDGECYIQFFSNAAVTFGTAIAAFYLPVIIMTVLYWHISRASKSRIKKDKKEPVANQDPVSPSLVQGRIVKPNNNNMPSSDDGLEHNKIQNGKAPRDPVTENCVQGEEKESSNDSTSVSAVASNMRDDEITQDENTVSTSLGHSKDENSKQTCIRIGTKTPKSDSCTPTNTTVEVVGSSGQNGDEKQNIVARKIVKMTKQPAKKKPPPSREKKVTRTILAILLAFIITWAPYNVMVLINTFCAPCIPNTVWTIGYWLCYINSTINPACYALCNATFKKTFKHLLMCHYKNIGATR

Muscarinic M3 = Muscarinic M3 (Homo sapiens, UniProt P20309); settings: cited from earlier work
Sequence of Muscarinic M3 (P20309 whole entry): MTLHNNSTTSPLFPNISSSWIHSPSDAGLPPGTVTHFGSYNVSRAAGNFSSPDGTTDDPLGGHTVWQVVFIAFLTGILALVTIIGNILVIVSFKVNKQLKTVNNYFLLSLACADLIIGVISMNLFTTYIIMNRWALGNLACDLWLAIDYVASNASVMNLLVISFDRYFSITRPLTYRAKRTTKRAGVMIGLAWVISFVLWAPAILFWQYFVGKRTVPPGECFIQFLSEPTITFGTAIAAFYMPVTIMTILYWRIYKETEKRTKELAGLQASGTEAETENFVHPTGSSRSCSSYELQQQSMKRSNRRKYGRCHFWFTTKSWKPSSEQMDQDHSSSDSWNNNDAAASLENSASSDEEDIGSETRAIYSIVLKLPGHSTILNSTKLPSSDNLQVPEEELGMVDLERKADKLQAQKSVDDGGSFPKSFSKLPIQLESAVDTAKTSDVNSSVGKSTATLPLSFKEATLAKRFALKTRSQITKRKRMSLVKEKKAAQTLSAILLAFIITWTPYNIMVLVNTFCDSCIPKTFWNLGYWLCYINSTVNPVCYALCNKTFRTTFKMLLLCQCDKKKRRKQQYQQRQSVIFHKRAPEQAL

[4] = cited from earlier work

Sequence of Opiate δ1 (OP1, DOP) (P41143 whole entry): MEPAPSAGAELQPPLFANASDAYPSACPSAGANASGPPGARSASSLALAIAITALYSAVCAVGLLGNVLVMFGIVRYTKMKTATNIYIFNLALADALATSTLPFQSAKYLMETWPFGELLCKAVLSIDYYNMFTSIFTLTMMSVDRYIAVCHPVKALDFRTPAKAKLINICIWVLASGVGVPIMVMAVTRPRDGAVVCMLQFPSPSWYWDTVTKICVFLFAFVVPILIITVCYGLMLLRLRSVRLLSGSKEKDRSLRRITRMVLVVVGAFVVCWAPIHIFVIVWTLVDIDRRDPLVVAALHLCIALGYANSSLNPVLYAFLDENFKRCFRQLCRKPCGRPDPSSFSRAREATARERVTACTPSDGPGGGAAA

Oc1ccc2c3c1O[C@H]1c4[nH]c5ccccc5c4C[C@@]4(O)[C@@H](C2)N(CC2CC2)CC[C@]314 [Naltrindole]
nH Historical (Opiate δ1 (OP1, DOP)): 1.0

OCCN(CCO)c1nc(N2CCCCC2)c2nc(N(CCO)CCO)nc(N3CCCCC3)c2n1 [Dipyridamole]
solubility of standard [1]: poorly to moderately soluble

C[N+]1(C)CCC(OC(=O)C(c2ccccc2)c2ccccc2)CC1.[I-] [Compound 4-DAMP, 4-DAMP]
IC50 (Muscarinic M1 [2]): 5.51 nM | nH Historical (Muscarinic M1 [3]): 1.0 | IC50 (Muscarinic M1 [3]; read-out: IC50 Historical): 4.5 nM | nH Historical (Muscarinic M2): 1.0 | nH Historical (Muscarinic M3): 1.10

CCN(CC)CCOC(=O)c1ccc(N)cc1 [Procaine]
stability in human plasma of standard [4]: highly unstable
